Assay results: patent publication US9604936B2, “Besylate salt of a BTK inhibitor” (Celgene Avilomics Research, Inc., priority 2010, dated 2017)
Where two headings read alike, the source gives them in different places. One block for each compound: values may come before it.

How the values were obtained:
[1] = Solubility of Compound 2 by manual dilution combined with visual observation; format: physicochemical; conditions: thermodynamic from solid
Protocol: Solubility of Compound 2, at room temperature, was measured in seventeen solvents and two solvent mixtures by manual dilution combined with visual observation.

B-cell proliferation [2] = conditions: in vivo; cited from earlier work
B-cell proliferation [3] = conditions: in vitro; cited from earlier work
BTK = BTK (Homo sapiens, UniProt Q06187); conditions: enzymatic and cellular assays; cited from earlier work
Chain of BTK (Q06187 whole entry, species assumed): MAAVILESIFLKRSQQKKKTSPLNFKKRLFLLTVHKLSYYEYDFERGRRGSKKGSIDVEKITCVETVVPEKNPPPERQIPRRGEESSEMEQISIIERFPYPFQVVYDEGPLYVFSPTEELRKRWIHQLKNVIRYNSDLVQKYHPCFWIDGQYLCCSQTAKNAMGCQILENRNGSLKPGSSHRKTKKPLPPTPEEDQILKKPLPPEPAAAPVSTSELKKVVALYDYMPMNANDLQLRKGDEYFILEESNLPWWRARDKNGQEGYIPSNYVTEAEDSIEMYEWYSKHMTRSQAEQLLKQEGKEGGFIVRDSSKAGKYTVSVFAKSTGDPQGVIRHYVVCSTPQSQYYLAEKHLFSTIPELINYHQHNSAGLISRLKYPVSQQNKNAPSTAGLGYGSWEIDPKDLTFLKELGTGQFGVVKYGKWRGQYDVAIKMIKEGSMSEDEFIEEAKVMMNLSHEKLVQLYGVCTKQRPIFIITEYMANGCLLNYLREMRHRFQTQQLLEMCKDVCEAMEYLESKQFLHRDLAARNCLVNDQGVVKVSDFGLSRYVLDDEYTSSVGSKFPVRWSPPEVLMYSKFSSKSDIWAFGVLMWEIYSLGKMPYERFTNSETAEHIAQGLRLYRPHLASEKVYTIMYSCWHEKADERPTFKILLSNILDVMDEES

- solubility ([1]; aqueous with cosolvent or surfactant or cyclodextrin, 1:1 DMF:H2O, room temperature): 71000 to 106000 µg/mL
- solubility ([1]; aqueous with cosolvent or surfactant or cyclodextrin, 3:7 DMF:H2O, room temperature): 16000 to 18000 µg/mL
- solubility ([1]; organic solvent or mixture, 1,4-dioxane, room temperature): < 1000 µg/mL
- solubility ([1]; organic solvent or mixture, Acetone, room temperature): ~2500 µg/mL
- solubility ([1]; organic solvent or mixture, Anisole, room temperature): < 1000 µg/mL
- solubility ([1]; organic solvent or mixture, Benzyl alcohol, room temperature): 97000 to 194000 µg/mL
- solubility ([1]; organic solvent or mixture, CH2Cl2, room temperature): < 1000 µg/mL
- solubility ([1]; organic solvent or mixture, CH3CN, room temperature): ~2000 µg/mL
- solubility ([1]; organic solvent or mixture, DMF, room temperature): > 184000 µg/mL
- solubility ([1]; organic solvent or mixture, Ethanol, room temperature): ~2000 µg/mL
- solubility ([1]; organic solvent or mixture, Ethyl Acetate, room temperature): < 1000 µg/mL
- solubility ([1]; organic solvent or mixture, Isopropanol, room temperature): < 1000 µg/mL
- solubility ([1]; organic solvent or mixture, Methanol, room temperature): 26000 to 29000 µg/mL
- solubility ([1]; organic solvent or mixture, Pyridine, room temperature): > 234000 µg/mL
- solubility ([1]; organic solvent or mixture, TBME, room temperature): < 1000 µg/mL
- solubility ([1]; organic solvent or mixture, THF, room temperature): ~2000 µg/mL
- solubility ([1]; organic solvent or mixture, Toluene, room temperature): < 1000 µg/mL
- solubility ([1]; Water, room temperature): < 1000 µg/mL
Structure (SMILES): C=CC(=O)Nc1cccc(Nc2nc(Nc3ccc(OCCOC)cc3)ncc2F)c1.O=S(=O)(O)c1ccccc1 [Compound 2]

Structure (SMILES): C=CC(=O)Nc1cccc(Nc2nc(Nc3ccc(OCCOC)cc3)ncc2F)c1 [Compound 1, N-(3-(5-fluoro-2-(4-(2-methoxyethoxy)phenylamino)pyrimidin-4-ylamino)phenyl)acrylamide]
- inhibition of B-cell proliferation (B-cell proliferation [2]): inhibit B-cell proliferation
- inhibition of B-cell proliferation (B-cell proliferation [3]): inhibit B-cell proliferation
- inhibition of BTK (BTK): covalent, irreversible inhibition of BTK
